Experimental data taken from ChEMBL document CHEMBL3991601, “The target landscape of clinical kinase drugs” (Science, 2017).
Calls of active or inactive are those of the source. Rule as the data show it, for most assays here: actives have a measured Kd and inactives only a lower limit.

Experiments:
[1] = molecular target: Cyclin-dependent kinase 7 (Homo sapiens, UniProt P50613)
[2] = molecular target: T1, Electron transfer flavoprotein subunit beta (Homo sapiens, UniProt P38117)
T1 sequence (P38117 whole entry): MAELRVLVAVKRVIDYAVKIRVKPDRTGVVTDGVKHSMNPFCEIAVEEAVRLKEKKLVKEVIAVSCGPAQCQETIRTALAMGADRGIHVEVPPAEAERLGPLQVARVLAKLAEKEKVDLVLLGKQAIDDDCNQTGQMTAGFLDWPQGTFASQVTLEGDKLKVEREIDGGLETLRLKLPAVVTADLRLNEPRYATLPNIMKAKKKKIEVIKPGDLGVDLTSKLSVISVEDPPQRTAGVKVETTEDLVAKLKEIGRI

[3] = molecular target: Tyrosine-protein kinase Fer (Homo sapiens, UniProt P16591)
[4] = molecular target: T2, Mitogen-activated protein kinase kinase kinase kinase 3 (Homo sapiens, UniProt Q8IVH8)
T2 sequence (Q8IVH8 whole entry): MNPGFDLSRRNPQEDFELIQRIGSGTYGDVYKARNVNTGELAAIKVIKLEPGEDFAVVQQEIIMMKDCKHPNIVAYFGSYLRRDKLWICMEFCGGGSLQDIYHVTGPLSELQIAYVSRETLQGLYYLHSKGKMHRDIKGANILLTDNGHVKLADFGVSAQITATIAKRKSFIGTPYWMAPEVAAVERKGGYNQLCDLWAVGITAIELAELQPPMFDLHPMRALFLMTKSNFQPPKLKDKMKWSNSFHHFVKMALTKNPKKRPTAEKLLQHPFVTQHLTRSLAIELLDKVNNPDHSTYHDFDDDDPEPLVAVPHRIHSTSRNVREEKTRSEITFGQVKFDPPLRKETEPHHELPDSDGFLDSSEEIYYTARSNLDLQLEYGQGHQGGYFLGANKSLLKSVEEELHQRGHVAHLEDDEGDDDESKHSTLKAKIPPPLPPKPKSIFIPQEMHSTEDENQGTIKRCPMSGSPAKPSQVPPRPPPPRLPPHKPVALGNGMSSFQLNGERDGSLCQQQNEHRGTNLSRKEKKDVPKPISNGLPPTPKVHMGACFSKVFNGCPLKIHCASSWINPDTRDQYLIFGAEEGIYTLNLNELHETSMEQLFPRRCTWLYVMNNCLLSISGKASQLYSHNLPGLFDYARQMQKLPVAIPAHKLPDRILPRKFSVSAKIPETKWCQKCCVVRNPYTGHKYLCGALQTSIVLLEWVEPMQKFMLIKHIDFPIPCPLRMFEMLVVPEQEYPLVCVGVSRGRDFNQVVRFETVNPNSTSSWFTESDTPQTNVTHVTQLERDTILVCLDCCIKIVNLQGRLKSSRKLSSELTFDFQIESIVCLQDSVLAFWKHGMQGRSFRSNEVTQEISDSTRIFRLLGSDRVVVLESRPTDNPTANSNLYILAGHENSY

[5] = molecular target: Mitogen-activated protein kinase kinase kinase kinase 4 (Homo sapiens, UniProt O95819)
[6] = molecular target: T3, Serine/threonine-protein kinase Nek1 (Homo sapiens, UniProt Q96PY6)
T3 sequence (Q96PY6 whole entry): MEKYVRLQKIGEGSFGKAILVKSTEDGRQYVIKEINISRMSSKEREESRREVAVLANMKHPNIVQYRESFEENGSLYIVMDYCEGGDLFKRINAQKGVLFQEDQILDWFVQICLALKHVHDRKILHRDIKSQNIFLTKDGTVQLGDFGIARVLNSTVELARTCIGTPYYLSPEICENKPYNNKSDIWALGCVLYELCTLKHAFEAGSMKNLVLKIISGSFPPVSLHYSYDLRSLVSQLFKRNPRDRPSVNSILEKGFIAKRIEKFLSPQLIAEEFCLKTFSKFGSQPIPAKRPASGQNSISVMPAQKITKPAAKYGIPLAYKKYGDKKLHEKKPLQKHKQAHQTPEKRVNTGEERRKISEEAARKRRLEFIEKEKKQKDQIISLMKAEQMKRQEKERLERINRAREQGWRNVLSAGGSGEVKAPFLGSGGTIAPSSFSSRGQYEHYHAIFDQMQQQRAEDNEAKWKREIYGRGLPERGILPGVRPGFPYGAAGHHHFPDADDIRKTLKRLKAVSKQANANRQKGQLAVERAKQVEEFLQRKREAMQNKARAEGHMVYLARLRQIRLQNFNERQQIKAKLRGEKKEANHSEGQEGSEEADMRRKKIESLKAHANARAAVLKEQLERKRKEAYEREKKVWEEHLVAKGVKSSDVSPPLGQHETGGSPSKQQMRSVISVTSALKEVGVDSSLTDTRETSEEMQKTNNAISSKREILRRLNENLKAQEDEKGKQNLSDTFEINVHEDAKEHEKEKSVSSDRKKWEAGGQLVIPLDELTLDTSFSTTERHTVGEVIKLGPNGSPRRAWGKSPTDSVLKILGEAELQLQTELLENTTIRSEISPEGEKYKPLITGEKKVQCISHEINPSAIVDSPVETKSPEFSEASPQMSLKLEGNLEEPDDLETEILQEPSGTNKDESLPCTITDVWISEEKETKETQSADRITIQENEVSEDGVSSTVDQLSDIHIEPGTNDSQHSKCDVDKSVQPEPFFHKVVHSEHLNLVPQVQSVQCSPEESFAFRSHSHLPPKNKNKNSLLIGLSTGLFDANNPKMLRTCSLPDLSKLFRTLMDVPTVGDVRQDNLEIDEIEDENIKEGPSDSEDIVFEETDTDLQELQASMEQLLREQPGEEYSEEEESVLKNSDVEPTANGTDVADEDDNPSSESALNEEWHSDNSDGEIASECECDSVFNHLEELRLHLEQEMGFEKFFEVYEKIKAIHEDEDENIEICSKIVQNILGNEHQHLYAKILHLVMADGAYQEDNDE

[7] = molecular target: T4, Phosphorylase b kinase gamma catalytic chain, liver/testis isoform (Homo sapiens, UniProt P15735)
T4 sequence (P15735 whole entry): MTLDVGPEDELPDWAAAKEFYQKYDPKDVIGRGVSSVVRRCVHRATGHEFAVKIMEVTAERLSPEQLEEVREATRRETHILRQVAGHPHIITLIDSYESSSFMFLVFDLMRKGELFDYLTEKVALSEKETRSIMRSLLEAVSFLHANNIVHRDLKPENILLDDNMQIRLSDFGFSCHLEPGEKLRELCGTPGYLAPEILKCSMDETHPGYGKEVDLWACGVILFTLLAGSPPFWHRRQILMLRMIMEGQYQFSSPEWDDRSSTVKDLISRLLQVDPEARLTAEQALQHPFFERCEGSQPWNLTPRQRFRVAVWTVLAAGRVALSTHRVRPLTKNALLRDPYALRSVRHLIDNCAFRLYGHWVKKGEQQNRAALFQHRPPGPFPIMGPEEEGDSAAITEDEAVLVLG

[8] = molecular target: Serine/threonine-protein kinase 10 (Homo sapiens, UniProt O94804)
Also: in the data inactive means no Kd found up to 30 µM.

Mitogen-activated protein kinase kinase kinase kinase 4, sequence (O95819 whole entry): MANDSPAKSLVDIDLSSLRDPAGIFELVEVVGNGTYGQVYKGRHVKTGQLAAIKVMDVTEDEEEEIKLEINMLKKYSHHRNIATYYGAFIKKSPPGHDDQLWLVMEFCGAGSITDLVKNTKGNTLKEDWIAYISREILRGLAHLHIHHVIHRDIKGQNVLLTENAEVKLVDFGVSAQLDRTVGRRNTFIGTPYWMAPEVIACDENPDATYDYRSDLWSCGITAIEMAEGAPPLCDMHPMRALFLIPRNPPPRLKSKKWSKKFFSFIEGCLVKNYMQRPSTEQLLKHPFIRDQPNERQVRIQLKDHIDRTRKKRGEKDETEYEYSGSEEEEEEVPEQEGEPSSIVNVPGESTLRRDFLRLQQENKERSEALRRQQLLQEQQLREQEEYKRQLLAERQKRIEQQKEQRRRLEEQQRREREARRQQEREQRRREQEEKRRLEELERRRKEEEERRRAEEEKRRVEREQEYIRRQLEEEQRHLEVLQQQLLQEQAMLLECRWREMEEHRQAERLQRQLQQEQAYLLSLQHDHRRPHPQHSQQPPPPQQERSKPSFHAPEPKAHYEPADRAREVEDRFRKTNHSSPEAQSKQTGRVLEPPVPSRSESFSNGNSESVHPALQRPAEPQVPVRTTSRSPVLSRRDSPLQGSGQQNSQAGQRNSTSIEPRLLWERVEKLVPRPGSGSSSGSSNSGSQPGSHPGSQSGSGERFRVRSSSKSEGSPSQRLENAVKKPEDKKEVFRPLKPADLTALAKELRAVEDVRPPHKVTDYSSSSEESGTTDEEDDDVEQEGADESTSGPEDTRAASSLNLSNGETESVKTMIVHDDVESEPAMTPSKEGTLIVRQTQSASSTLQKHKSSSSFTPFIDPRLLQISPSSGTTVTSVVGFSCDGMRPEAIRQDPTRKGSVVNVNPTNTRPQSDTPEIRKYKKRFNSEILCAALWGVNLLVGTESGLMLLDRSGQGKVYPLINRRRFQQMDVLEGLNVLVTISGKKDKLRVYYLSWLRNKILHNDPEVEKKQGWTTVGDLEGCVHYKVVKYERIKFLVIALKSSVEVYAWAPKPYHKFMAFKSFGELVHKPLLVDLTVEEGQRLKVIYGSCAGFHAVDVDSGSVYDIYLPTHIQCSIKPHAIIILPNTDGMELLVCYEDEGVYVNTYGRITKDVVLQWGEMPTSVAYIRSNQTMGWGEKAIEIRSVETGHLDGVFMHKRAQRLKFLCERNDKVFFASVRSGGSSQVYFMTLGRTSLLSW
Tyrosine-protein kinase Fer, sequence (P16591 whole entry): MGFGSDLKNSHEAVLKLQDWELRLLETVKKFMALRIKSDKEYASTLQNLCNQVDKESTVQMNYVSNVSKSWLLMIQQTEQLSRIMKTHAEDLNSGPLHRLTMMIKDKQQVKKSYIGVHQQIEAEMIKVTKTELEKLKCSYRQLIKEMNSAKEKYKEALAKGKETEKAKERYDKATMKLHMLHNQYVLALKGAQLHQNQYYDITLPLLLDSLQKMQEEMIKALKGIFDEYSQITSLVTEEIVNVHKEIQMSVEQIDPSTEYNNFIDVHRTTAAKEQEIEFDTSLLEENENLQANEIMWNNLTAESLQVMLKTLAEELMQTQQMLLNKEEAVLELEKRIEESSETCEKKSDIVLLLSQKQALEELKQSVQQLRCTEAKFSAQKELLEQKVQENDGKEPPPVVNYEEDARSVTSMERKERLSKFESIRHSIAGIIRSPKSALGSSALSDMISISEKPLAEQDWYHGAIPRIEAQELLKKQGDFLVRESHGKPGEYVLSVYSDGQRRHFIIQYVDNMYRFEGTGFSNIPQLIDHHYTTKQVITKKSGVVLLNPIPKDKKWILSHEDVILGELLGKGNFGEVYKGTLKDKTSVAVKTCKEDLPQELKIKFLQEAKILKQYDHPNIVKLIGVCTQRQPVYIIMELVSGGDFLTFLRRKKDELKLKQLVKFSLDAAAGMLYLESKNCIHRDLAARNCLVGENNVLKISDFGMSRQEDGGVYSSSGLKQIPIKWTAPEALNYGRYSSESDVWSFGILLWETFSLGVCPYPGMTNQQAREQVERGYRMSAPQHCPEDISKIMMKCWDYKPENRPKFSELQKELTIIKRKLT
Serine/threonine-protein kinase 10, sequence (O94804 whole entry): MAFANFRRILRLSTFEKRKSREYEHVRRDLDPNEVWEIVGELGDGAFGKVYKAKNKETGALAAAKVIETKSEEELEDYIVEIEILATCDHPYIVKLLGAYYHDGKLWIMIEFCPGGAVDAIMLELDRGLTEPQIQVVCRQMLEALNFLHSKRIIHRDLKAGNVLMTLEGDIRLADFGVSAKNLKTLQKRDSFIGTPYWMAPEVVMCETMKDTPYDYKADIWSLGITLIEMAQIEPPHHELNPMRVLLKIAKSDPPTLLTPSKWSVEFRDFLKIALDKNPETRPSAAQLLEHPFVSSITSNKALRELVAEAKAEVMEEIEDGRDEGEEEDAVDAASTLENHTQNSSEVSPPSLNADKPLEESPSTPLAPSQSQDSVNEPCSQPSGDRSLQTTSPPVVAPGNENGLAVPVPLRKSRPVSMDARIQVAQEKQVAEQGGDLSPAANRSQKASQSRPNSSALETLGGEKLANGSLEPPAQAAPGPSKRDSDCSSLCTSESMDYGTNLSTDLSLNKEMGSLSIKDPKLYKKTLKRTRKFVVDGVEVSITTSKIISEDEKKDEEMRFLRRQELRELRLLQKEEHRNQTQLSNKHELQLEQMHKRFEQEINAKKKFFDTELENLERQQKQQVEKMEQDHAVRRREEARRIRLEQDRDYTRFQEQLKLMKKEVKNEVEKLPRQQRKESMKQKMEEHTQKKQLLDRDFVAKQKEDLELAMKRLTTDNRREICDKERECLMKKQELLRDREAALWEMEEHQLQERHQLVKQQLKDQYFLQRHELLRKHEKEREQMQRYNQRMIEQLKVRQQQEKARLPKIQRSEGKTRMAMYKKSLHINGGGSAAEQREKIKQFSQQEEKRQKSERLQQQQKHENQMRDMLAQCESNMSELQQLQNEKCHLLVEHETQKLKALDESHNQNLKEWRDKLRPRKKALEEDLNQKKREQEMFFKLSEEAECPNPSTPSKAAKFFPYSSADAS
Cyclin-dependent kinase 7, sequence (P50613 whole entry): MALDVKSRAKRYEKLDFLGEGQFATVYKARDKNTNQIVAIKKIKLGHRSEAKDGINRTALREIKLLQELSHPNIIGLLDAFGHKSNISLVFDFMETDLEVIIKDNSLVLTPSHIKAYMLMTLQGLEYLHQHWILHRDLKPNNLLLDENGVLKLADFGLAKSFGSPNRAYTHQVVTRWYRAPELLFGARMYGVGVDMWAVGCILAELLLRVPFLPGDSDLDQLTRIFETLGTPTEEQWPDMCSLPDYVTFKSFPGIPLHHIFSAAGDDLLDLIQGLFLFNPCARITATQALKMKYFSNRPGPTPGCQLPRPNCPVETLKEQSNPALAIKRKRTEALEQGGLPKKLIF

Row | SMILES | Kd [1] | Kd [2] | Kd [3] | Kd [4] | Kd [5] | Kd [6] | Kd [7] | Kd [8]
1 | CCCS(=O)(=O)Nc1ccc(F)c(C(=O)c2c[nH]c3ncc(-c4ccc(Cl)cc4)cc23)c1F [VEMURAFENIB] | > 30 µM (inactive) | > 30 µM (inactive) | > 30 µM (inactive) | > 30 µM (inactive) | > 30 µM (inactive) | > 30 µM (inactive) | > 30 µM (inactive) | > 30 µM (inactive)
2 | CC[C@H](Nc1ncnc2[nH]cnc12)c1nc2cccc(F)c2c(=O)n1-c1ccccc1 [IDELALISIB] | > 30 µM (inactive) | > 30 µM (inactive) | > 30 µM (inactive) | > 30 µM (inactive) | > 30 µM (inactive) | > 30 µM (inactive) | > 30 µM (inactive) | > 30 µM (inactive)
3 | CNS(=O)(=O)Nc1nccc(Cc2c(C)c3ccc(Oc4ncccn4)cc3oc2=O)c1F [AVUTOMETINIB] | > 30 µM (inactive) | > 30 µM (inactive) | > 30 µM (inactive) | > 30 µM (inactive) | > 30 µM (inactive) | > 30 µM (inactive) | > 30 µM (inactive) | > 30 µM (inactive)
4 | CC(=O)Nc1cccc(-n2c(=O)n(C3CC3)c(=O)c3c(Nc4ccc(I)cc4F)n(C)c(=O)c(C)c32)c1 [TRAMETINIB] | > 30 µM (inactive) | > 30 µM (inactive) | > 30 µM (inactive) | > 30 µM (inactive) | > 30 µM (inactive) | > 30 µM (inactive) | > 30 µM (inactive) | > 30 µM (inactive)
5 | CO[C@H]1C[C@@H]2CC[C@@H](C)[C@@](O)(O2)C(=O)C(=O)N2CCCC[C@H]2C(=O)O[C@H]([C@H](C)C[C@@H]2CC[C@@H](OCCO)[C@H](OC)C2)CC(=O)[C@H](C)/C=C(\C)[C@@H](O)[C@@H](OC)C(=O)[C@H](C)C[C@H](C)/C=C/C=C/C=C/1C [EVEROLIMUS] | > 30 µM (inactive) | > 30 µM (inactive) | > 30 µM (inactive) | > 30 µM (inactive) | > 30 µM (inactive) | > 30 µM (inactive) | > 30 µM (inactive) | > 30 µM (inactive)
6 | CN1N=C(N)c2cn([C@@H]3O[C@H](COP(=O)(O)O)[C@@H](O)[C@H]3O)c3ncnc1c23 [TRICIRIBINE PHOSPHATE] | > 30 µM (inactive) | > 30 µM (inactive) | > 30 µM (inactive) | > 30 µM (inactive) | > 30 µM (inactive) | > 30 µM (inactive) | > 30 µM (inactive) | > 30 µM (inactive)
7 | O=c1sn(-c2cccc3ccccc23)c(=O)n1Cc1ccccc1 [TIDEGLUSIB] | > 30 µM (inactive) | > 30 µM (inactive) | > 30 µM (inactive) | > 30 µM (inactive) | > 30 µM (inactive) | > 30 µM (inactive) | > 30 µM (inactive) | > 30 µM (inactive)
8 | CN1CC[C@@H](c2c(O)cc(O)c3c(=O)cc(-c4ccccc4Cl)oc23)[C@@H]1CO | > 30 µM (inactive) | > 30 µM (inactive) | > 30 µM (inactive) | > 30 µM (inactive) | > 30 µM (inactive) | > 30 µM (inactive) | > 30 µM (inactive) | > 30 µM (inactive)
9 | C[C@@H]1CN(Cc2ccc(F)cc2)[C@@H](C)CN1C(=O)c1cc2c(C(=O)C(=O)N(C)C)cn(C)c2cc1Cl [TALMAPIMOD] | > 30 µM (inactive) | > 30 µM (inactive) | > 30 µM (inactive) | > 30 µM (inactive) | > 30 µM (inactive) | > 30 µM (inactive) | > 30 µM (inactive) | > 30 µM (inactive)
10 | CNC(=O)c1ccc(-c2cnc3ncc(Cc4ccc5ncccc5c4)n3n2)cc1F [CAPMATINIB] | > 30 µM (inactive) | > 30 µM (inactive) | > 30 µM (inactive) | > 30 µM (inactive) | > 30 µM (inactive) | > 30 µM (inactive) | > 30 µM (inactive) | > 30 µM (inactive)

Next, values leading:

Row | Kd [1] | Kd [2] | Kd [3] | Kd [4] | Kd [5] | Kd [6] | Kd [7] | Kd [8] | SMILES
11 | > 30 µM (inactive) | > 30 µM (inactive) | > 30 µM (inactive) | > 30 µM (inactive) | 7.98 µM (active) | > 30 µM (inactive) | > 30 µM (inactive) | 42.6 µM (active) | CCN1CCN(Cc2ccc(-c3cc4c(N[C@H](C)c5ccccc5)ncnc4[nH]3)cc2)CC1 [AEE-788]
12 | > 30 µM (inactive) | > 30 µM (inactive) | 1.54 µM (active) | > 30 µM (inactive) | > 30 µM (inactive) | > 30 µM (inactive) | > 30 µM (inactive) | 1.09 µM (active) | O=C(O)[C@]1(Cc2cccc(Nc3nccs3)n2)CC[C@@H](Oc2cccc(Cl)c2F)CC1 [MK-5108]
13 | > 30 µM (inactive) | > 30 µM (inactive) | > 30 µM (inactive) | > 30 µM (inactive) | > 30 µM (inactive) | > 30 µM (inactive) | > 30 µM (inactive) | > 30 µM (inactive) | C[C@@H](Nc1cc(F)cc(F)c1)c1cc(C(=O)N(C)C)cc2c(=O)cc(N3CCOCC3)oc12 [AZD-8186]
14 | > 30 µM (inactive) | > 30 µM (inactive) | > 30 µM (inactive) | > 30 µM (inactive) | > 30 µM (inactive) | > 30 µM (inactive) | > 30 µM (inactive) | > 30 µM (inactive) | Cn1cc(-c2ccc3nnc(C(F)(F)c4ccc5ncccc5c4)n3n2)cn1 [JNJ-38877605]
15 | > 30 µM (inactive) | > 30 µM (inactive) | 0.363 µM (active) | > 30 µM (inactive) | > 30 µM (inactive) | > 30 µM (inactive) | > 30 µM (inactive) | 23.7 µM (active) | COc1cc(N2CCC(N3CCN(C)CC3)CC2)ccc1Nc1ncnc(Nc2ccccc2S(=O)(=O)C(C)C)n1 [ASP-3026]
